Experimental data as given in patent US9072741B2, “Methods of treating liver fibrosis and pre-cirrhosis with epidermal growth factor receptor inhibitors” (The General Hospital Corporation, priority 2009, dated 2015).

Tests used:
[1] = system: DEN-induced cirrhosis and HCC; test: DEN-induced rat model of cirrhosis and HCC: tumor formation (tumor nodules) and gross liver appearance; assay type: in vivo, male Wistar rats; conditions: for decrease of tumor formation: vs vehicle
Description: FIG. 1A is a bar graph depicting the number of tumor nodules in male Wistar rats receiving weekly intraperitoneal injections of 50 mg/kg diethylnitrosamine (DEN) for 18 weeks and vehicle only (n=16), 0.5 mg/kg erlotinib (Erl 0.5; n=8), or 2 mg/kg erlotinib (Erl 2; n=8) during weeks 12-18.
FIG. 5A is a bar graph depicting the number of tumor nodules in male Wistar rats receiving weekly intraperitoneal injections of 50 mg/kg DEN for 18 weeks and vehicle only (n=8) or 18 mg/kg lapatinib (n=8) during weeks 12-18. *, significant.
Given the lack of successful treatment options for HCC, chemoprevention in high-risk patients has been proposed as an alternative strategy (Llovet et al., Lancet 362:1907-17, 2003). Even though EGFR inhibition is not effective for chemotherapy, the data presented herein indicate that it is likely to be a good chemoprevention strategy. The diethylnitrosamine (DEN)-induced rat model of sequential cirrhosis and HCC has emerged as a promising tool for not only studying the course of chronic liver disease but also for testing putative chemopreventive agents as it better resembles disease progression in humans (Lee et al., Korean J Hepatol 13:70-80, 2007; Schiffer et al., Hepatology 41:307-14, 2005). In this model, DEN induces liver cirrhosis after 12 weeks and HCC at approximately 18 weeks allowing ample opportunity for preventative intervention.
Erlotinib is a drug used to treat non-small cell lung cancer and pancreatic cancer. Erlotinib specifically targets the EGFR, which is highly expressed and occasionally mutated in various forms of cancer, by binding to the adenosine triphosphate (ATP) binding site of the receptor (Raymond et al., Drugs 60 Suppl 1:15-23, 2000). To investigate erlotinib as a chemoprevention strategy for liver fibrogenesis, male Wistar rats were given a weekly intraperitoneal injection of 50 mg/kg DEN to induce cirrhosis and HCC (Lee et al., Korean J Hepatol 13:70-80, 2007). Erlotinib was administered by intraperitoneal injection daily (5× a week) during weeks 12-18 at a dose of 2 mg/kg, which is equivalent to chemotherapeutic dosing regimens in humans. […] In a separate study, the dose of erlotinib was lowered to 0.5 mg/kg.
Repeated injury to the liver causes damage to hepatocytes and activates resident macrophages called Kupffer cells. Damaged hepatocytes and activated Kupffer cells secrete cytokines and growth factors into the liver milieu, which activate hepatic stellate cells (Friedman, Gastroenterology 134:1655-69, 2008). Normally, hepatic stellate cells are quiescent and store vitamin A and fat. Upon activation, they differentiate into a myofibroblast-phenotype and express α-smooth muscle actin (α-SMA) (Friedman, Gastroenterology 134:1655-69, 2008). Activated hepatic stellate cells deposit fibrous collagen into the space of Disse acutely causing fibrosis and chronically causing cirrhosis. The degree of liver disease (fibrosis versus cirrhosis) is pathologically assessed through trichrome staining of collagen by the method of Ishak (Mod Pathol 7:690-713, 1994).
To investigate lapatinib as a chemoprevention strategy for liver fibrogenesis, male Wistar rats were given a weekly intraperitoneal injection of 50 mg/kg DEN to induce cirrhosis and HCC (Lee et al., Korean J Hepatol 13:70-80, 2007). Lapatinib was administered by intraperitoneal injection daily (5× a week) during weeks 12-18 at a dose of 18 mg/kg.

[2] = system: DEN-induced hepatotoxicity and liver failure; test: Liver function tests on serum (AST, TBIL, Glu) of DEN-treated rats; assay type: in vivo, male Wistar rats; conditions: n=4
Description: FIGS. 4A, 4B, and 4C are a series of three bar graphs showing the levels of (A) aspartate transaminase (AST), (B) total bilirubin (TBIL), and (C) total glucose (Glu) in serum from rats treated with PBS for 18 weeks or DEN (50 mg/kg) for 18 weeks plus either vehicle, 0.5 mg/kg erlotinib (Erl 0.5), or 2 mg/kg erlotinib (Erl 2) during weeks 12-18. *, significant.
FIGS. 7A, 7B, and 7C are a series of three bar graphs showing levels of (A) aspartate transaminase (AST), (B) total bilirubin (TBIL), and (C) total glucose (Glu) in serum from rats treated with DEN (50 mg/kg) for 18 weeks plus either vehicle or 18 mg/kg lapatinib during weeks 12-18. *, significant.
During fibrosis, hepatic stellate cells are activated and deposit fibrous collagen into the space of Disse, the area between the hepatocytes and the sinusoid containing blood plasma. The deposition of collagen inhibits the normal exchange of nutrients and wastes between the hepatocytes and plasma resulting in hepatotoxicity and liver failure. The degree of liver toxicity and failure can be assessed by measuring several proteins or a carbohydrate present in the serum. For example, aspartate aminotransferase (AST) is an enzyme present in hepatocytes that is released into the serum when hepatocytes die. Bilirubin (TBIL) is the breakdown product of heme and its levels become elevated in the serum if hepatocytes cannot properly metabolize it. Finally, liver failure will result in lower levels of glucose (Glu) production causing serum Glu levels to drop.
The levels of AST, TBIL, and Glu were assayed in serum from rats treated with erlotinib. Male Wistar rats (n=4) were treated with PBS for 18 weeks or a weekly intraperitoneal injection of 50 mg/kg DEN for 18 weeks plus either vehicle, 0.5 mg/kg erlotinib (Erl 0.5), or 2 mg/kg erlotinib (Erl 2) between weeks 12 and 18. Whole blood was isolated from the rats and allowed to clot for 2 hours at room temperature. The blood was then spun at 2,000 rpm for 10 minutes and serum (top layer) was isolated. Liver function tests were performed on serum from the rats. In the current model, intraperitoneal administration of DEN causes both hepatotoxicity and liver failure to increase over time as assessed by these three markers. However, compared to vehicle controls, erlotinib reduced the degree of hepatotoxicity and liver failure in a dose-dependent fashion. Specifically, erlotinib decreased serum levels of AST and TBIL and increased serum levels of Glu (FIGS. 4A-C).
Levels of AST, TBIL, and Glu were assayed in serum from rats treated with lapatinib. Male Wistar rats (n=4) were treated with PBS for 18 weeks or a weekly intraperitoneal injection of 50 mg/kg DEN for 18 weeks plus either vehicle or 18 mg/kg lapatinib between weeks 12 and 18. Whole blood was isolated from the rats and allowed to clot for 2 hours at room temperature. The blood was then spun at 2,000 rpm for 10 minutes and serum (top layer) was isolated. Liver function tests were performed on serum from the rats. In the current model, intraperitoneal administration of DEN causes both hepatotoxicity and liver failure to increase over time as assessed by these three markers. However, compared to vehicle controls, lapatinib reduced the degree of hepatotoxicity and liver failure. Specifically, lapatinib decreased serum levels of AST and TBIL and increased serum levels of Glu (FIGS. 7A-C).

[3] = 0.5 and 2 mg/kg weeks 12-18 vs vehicle, dose-dependent
[4] = 18 mg/kg weeks 12-18 vs vehicle

| Structure (SMILES) | inhibition of tumor formation ([1]; 0.5 mg/kg i.p. daily weeks 12-18, DEN 50 mg/kg weekly for 18 weeks, separate study) | decrease of tumor formation ([1]; 2 mg/kg i.p. daily (5x a week) weeks 12-18, DEN 50 mg/kg weekly for 18 weeks) | gross appearance of livers ([1]; 0.5 and 2 mg/kg weeks 12-18 (FIGS. 1C, 1D) vs vehicle) | serum level of AST [2, 3] | serum level of Glu [2, 3] | serum level of TBIL [2, 3] | decrease of tumor formation ([1]; 18 mg/kg i.p. daily (5x a week) weeks 12-18, DEN 50 mg/kg weekly for 18 weeks) | gross appearance of livers ([1]; 18 mg/kg weeks 12-18 (FIG. 5C) vs vehicle) | serum level of AST [2, 4] | serum level of Glu [2, 4] | serum level of TBIL [2, 4] |
| --- | --- | --- | --- | --- | --- | --- | --- | --- | --- | --- | --- |
| C#Cc1cccc(Nc2ncnc3cc(OCCOC)c(OCCOC)cc23)c1 [erlotinib, 4-Quinazolinamine, N-(3-ethynylphenyl)-6,7-bis(2-methoxyethoxy)] | 49% | 75% | not only exhibited less tumors, but also appeared less cirrhotic | decreased | increased | decreased | – | – | – | – | – |
| CS(=O)(=O)CCNCc1ccc(-c2ccc3ncnc(Nc4ccc(OCc5cccc(F)c5)c(Cl)c4)c3c2)o1 [lapatinib, 4-Quinazolinamine, N-(3-chloro-4-((3-fluorophenyl)methoxy)phenyl)-6-(5-(((2-(methylsulfonyl)ethyl)amino)methyl)-2-furanyl)] | – | – | – | – | – | – | greater than 50% | not only exhibited less tumors, but also appeared less cirrhotic | decreased | increased | decreased |
